This is an account of results in BindingDB's records for doi:10.1016/s0014-2999(02)02124-6 (Schering-Plough Research Institute, 2002).

One experiment concerns the target T1, Substance-K receptor (Homo sapiens, UniProt P21452).
T1 sequence (P21452 whole entry): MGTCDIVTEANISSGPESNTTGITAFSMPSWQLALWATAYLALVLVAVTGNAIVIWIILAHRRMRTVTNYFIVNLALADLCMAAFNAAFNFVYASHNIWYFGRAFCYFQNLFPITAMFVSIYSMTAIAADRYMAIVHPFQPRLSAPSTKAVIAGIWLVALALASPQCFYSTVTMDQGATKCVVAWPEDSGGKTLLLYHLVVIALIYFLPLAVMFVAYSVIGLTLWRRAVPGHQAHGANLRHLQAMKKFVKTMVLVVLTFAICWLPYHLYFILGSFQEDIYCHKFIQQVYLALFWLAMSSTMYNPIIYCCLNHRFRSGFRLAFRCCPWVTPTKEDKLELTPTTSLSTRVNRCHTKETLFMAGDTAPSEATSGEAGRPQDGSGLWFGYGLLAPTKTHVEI

The target in a further experiment is T2, Neuromedin-K receptor (Homo sapiens, UniProt P29371).
T2 sequence (P29371 whole entry): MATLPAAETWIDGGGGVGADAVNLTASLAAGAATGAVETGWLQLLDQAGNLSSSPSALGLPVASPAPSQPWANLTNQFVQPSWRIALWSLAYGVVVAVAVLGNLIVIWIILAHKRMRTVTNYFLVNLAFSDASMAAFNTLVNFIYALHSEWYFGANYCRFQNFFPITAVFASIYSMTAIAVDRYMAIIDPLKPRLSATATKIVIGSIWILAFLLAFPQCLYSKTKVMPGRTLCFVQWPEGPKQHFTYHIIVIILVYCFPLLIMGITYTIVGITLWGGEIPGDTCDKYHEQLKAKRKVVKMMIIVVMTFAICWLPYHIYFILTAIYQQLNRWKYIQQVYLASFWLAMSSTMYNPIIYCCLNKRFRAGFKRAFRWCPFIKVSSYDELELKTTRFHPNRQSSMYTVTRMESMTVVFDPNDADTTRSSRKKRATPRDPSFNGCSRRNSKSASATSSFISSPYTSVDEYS

The next experiment addresses Substance-P receptor (Homo sapiens, UniProt P25103).

Sequence of Substance-P receptor (P25103 whole entry): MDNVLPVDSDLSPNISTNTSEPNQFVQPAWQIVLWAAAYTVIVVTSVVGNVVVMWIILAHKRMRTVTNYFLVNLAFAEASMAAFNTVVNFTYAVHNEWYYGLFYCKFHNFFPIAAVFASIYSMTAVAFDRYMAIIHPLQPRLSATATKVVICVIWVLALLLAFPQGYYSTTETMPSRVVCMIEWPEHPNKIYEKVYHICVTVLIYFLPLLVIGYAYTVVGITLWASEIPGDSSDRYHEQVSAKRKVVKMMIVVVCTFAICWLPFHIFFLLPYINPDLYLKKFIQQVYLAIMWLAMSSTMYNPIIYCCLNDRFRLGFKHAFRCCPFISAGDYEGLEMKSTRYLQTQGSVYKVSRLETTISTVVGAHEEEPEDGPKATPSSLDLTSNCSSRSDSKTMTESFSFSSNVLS

As usually defined, the Ki is a dissociation constant, usually derived from enzyme kinetics or from competition with a known ligand. The low end stands for higher affinity, the high end for lower affinity. With `COc1ccccc1CN[C@H]1CCCN[C@H]1c1ccccc1` [(+/-)(2-Methoxy-benzyl)-(2-phenyl-piperidin-3-yl)-amine], the Ki at Substance-K receptor and on Neuromedin-K receptor was over 10000 nM each time.

Regarding `CNC(=O)CC1CCCN(C2CCN(CC[C@@H](/C(CN(C)C(=O)c3cc(Cl)cc(Cl)c3)=N/OC)c3ccc(Cl)c(Cl)c3)CC2)C1=O` (stereo partly drawn), the Ki on Substance-P receptor was found to be 1.3 nM; at Substance-K receptor, 0.4 nM; at Neuromedin-K receptor, 0.3 nM.

`CC(=O)NC1(c2ccccc2)CCN(CCC(CN(C)C(=O)c2ccccc2)c2ccc(Cl)c(Cl)c2)CC1` (stereo not drawn) [SR 48968]: the results for the Ki at Substance-P receptor, on Substance-K receptor and on Neuromedin-K receptor were 273 nM, 0.4 nM and 1280 nM, respectively.
